Data taken from patent US20150258107A1, “METHODS AND COMPOSITIONS FOR TREATING DEPRESSION” (DemeRx, Inc., priority 2014, published 2015).
Entries after “also recorded” stand apart in the source; their conditions may differ. Where two headings read alike, the source gives them in different places.

Columns and labels:
[1] = Single dose (acute oral) toxicity/TK study in dogs; format: in vivo, dog; conditions: dog, in vivo; single oral dose
[2] = system: dogs; assay: Single dose (acute oral) toxicity/TK study in dogs; format: in vivo, dog
[3] = Pharmacokinetics in opioid-dependent patients (Phase IB study); format: in vivo, human; conditions: 60, 120, 180 mg
Method: Three cohorts of nine (9) subjects (6 administered noribogaine and 3 administered placebo in each cohort) were evaluated for tolerability, pharmacokinetics, and efficacy. Cohort 1 received a single dose of 60 mg noribogaine or placebo. Cohort 2 received a single dose of 120 mg noribogaine or placebo. Cohort 3 received a single dose of 180 mg noribogaine or placebo. […] Headaches were frequent in the placebo and 60 mg noribogaine treatment groups, but were attenuated in the 120 mg and 180 mg dose groups.

[4] = Plasma toxicokinetics in dogs, fourteen day repeat dose; format: in vivo, dog
Method: Noribogaine HCl was administered to groups of 4 male and 4 female dogs by single oral gavage daily for 14 days at doses of 0, 0.5, 1.0 and 5.0 mg/kg/day. An additional group of 4 male and 4 female dogs received either the vehicle control or 5.0 mg/kg/day for 14 days and were held for an additional 28 days after cessation of dosing to assess recovery from any potential drug-induced changes. The study was conducted under GLP guidelines and included comprehensive examinations of clinical signs, body weight, clinical pathology parameters, ophthalmologic examinations, ECG recordings and analyses of plasma for bioanalytical measurement of drug levels at appropriate intervals during the study. At the termination of the dosing phase and at the termination of the recovery phase, all dogs were subjected to a complete post-mortem examination including gross examination of major organs and histologic examination of an extensive list of tissues. Additional sections of brain were obtained from cerebrum, cerebellus, brain stem and spinal cord and examined histologically to evaluate potential effects on brain histopathology. In addition, these sections were examined with immunohistochemical stains for GFAP for evidence of gliosis and Calbindin for a more comprehensive examination of cerebellar Purkinje cells.

[5] = Single dose toxicity in cynomolgus monkeys; format: in vivo, cynomolgus monkey; conditions: cynomolgus monkey, in vivo; oral gavage; read-out: single dose maximum tolerated dose (MTD)
Method: (§1) The objective of the study was to determine the toxicity and toxicokinetic profile of noribogaine following oral (gavage) administration to the cynomolgus monkey. Each dose was followed by a 7 day washout period. Dosing was staggered by 45 minutes. On study day 15, one animal was administered 80 mg/kg and the other animal was administered 160 mg/kg. The test article was administered as follows in Table 1:
(§2) Parameters monitored on the study included: mortality, clinical signs and body weights. Blood samples were collected for TK evaluation. […] The single dose maximum tolerated dose (MTD) was determined to be greater than 160 mg/kg based on the parameters monitored during the study.

[6] = system: cynomolgus monkey; assay: Single dose toxicity in cynomolgus monkeys; format: in vivo; conditions: oral gavage, doses up to and including 160 mg/kg
Method: as §1, §2

[7] = system: healthy, drug-free male volunteers; assay: Safety and tolerability of noribogaine in healthy volunteers; format: in vivo, human
Method: Safety and tolerability of noribogaine were tested in the group of volunteers from Example 9. […] Safety evaluations included clinical monitoring, recording of adverse events (AEs), safety laboratory tests, vital signs, ECG telemetry from −2 h to 6 h after dosing, and 12-lead electrocardiograms (ECGs) up to 216 hours post-dosing.

[8] = female, dog, plasma, po, 0.5 mg/kg, female dogs, Gr 2, 0.5 mg/kg, D1
[9] = female, dog, plasma, po, 0.5 mg/kg, female dogs, Gr 2, 0.5 mg/kg, D14
[10] = female, dog, plasma, po, 1 mg/kg, female dogs, Gr 3, 1.0 mg/kg, D1
[11] = female, dog, plasma, po, 1 mg/kg, female dogs, Gr 3, 1.0 mg/kg, D14
[12] = female, dog, plasma, po, 5 mg/kg, female dogs, Gr 4, 5.0 mg/kg, D1
[13] = female, dog, plasma, po, 5 mg/kg, female dogs, Gr 4, 5.0 mg/kg, D14
[14] = male, dog, plasma, po, 0.5 mg/kg, male dogs, Gr 2, 0.5 mg/kg, D1
[15] = male, dog, plasma, po, 0.5 mg/kg, male dogs, Gr 2, 0.5 mg/kg, D14
[16] = male, dog, plasma, po, 1 mg/kg, male dogs, Gr 3, 1.0 mg/kg, D1
[17] = male, dog, plasma, po, 1 mg/kg, male dogs, Gr 3, 1.0 mg/kg, D14
[18] = male, dog, plasma, po, 5 mg/kg, male dogs, Gr 4, 5.0 mg/kg, D1
[19] = male, dog, plasma, po, 5 mg/kg, male dogs, Gr 4, 5.0 mg/kg, D14

Compound: CC[C@H]1CC2C[C@H]3c4[nH]c5ccc(O)cc5c4CCN(C2)C13 [noribogaine]
- NOAEL [1]: 5 mg/kg
- Findings at the NOAEL dose ([2]; 5 mg/kg): only transient reduction in food consumption in one dog
- Clinical signs ([2]; 10 mg/kg): Convulsions and other CNS-related clinical signs
- Onset of clinical signs after dosing ([2]; 10 mg/kg): 20 min
- Mortality ([2]; oral doses of 5 (n=2) or 10 (n=2) mg/kg): no mortality occurred
- Dose dependence of maximum serum concentration (Cmax) [3]: increased in a dose-dependent manner
- Cmax ([4]; female dogs, Gr 2, 0.5 mg/kg, D1): 25.3 ng/mL
- Cmax ([4]; female dogs, Gr 2, 0.5 mg/kg, D14): 29.8 ng/mL
- Cmax ([4]; female dogs, Gr 3, 1.0 mg/kg, D1): 68.5 ng/mL
- Cmax ([4]; female dogs, Gr 3, 1.0 mg/kg, D14): 74.1 ng/mL
- Cmax ([4]; female dogs, Gr 4, 5.0 mg/kg, D1): 691 ng/mL
- Cmax ([4]; female dogs, Gr 4, 5.0 mg/kg, D14): 683 ng/mL
- AUC(0-inf) [4, 8]: 44.9 ng·h/mL
- Tmax [4, 8]: 30 min
- half-life [4, 8]: 60 min
- AUC(0-t) ([4]; female, dog, plasma, po, 0.5 mg/kg, female dogs, Gr 2, 0.5 mg/kg, D1, read-out: AUC0-24 h): 40.4 ng·h/mL
- AUC(0-t) ([4]; female, dog, plasma, po, 0.5 mg/kg, female dogs, Gr 2, 0.5 mg/kg, D1, read-out: AUC0-last): 31.5 ng·h/mL
- AUC(0-inf) [4, 9]: 45.7 ng·h/mL
- Tmax [4, 9]: 60 min
- half-life [4, 9]: 66 min
- AUC(0-t) ([4]; female, dog, plasma, po, 0.5 mg/kg, female dogs, Gr 2, 0.5 mg/kg, D14, read-out: AUC0-24 h): 55 ng·h/mL
- AUC(0-t) ([4]; female, dog, plasma, po, 0.5 mg/kg, female dogs, Gr 2, 0.5 mg/kg, D14, read-out: AUC0-last): 35.4 ng·h/mL
- AUC(0-inf) [4, 10]: 165 ng·h/mL
- Tmax [4, 10]: 48 min
- half-life [4, 10]: 84 min
- AUC(0-t) ([4]; female, dog, plasma, po, 1 mg/kg, female dogs, Gr 3, 1.0 mg/kg, D1, read-out: AUC0-24 h): 176 ng·h/mL
- AUC(0-t) ([4]; female, dog, plasma, po, 1 mg/kg, female dogs, Gr 3, 1.0 mg/kg, D1, read-out: AUC0-last): 149 ng·h/mL
- AUC(0-inf) [4, 11]: 197 ng·h/mL
- Tmax [4, 11]: 30 min
- half-life [4, 11]: 96 min
- AUC(0-t) ([4]; female, dog, plasma, po, 1 mg/kg, female dogs, Gr 3, 1.0 mg/kg, D14, read-out: AUC0-24 h): 204 ng·h/mL
- AUC(0-t) ([4]; female, dog, plasma, po, 1 mg/kg, female dogs, Gr 3, 1.0 mg/kg, D14, read-out: AUC0-last): 169 ng·h/mL
- AUC(0-inf) [4, 12]: 3430 ng·h/mL
- Tmax [4, 12]: 36 min
- half-life [4, 12]: 258 min
- AUC(0-t) ([4]; female, dog, plasma, po, 5 mg/kg, female dogs, Gr 4, 5.0 mg/kg, D1, read-out: AUC0-24 h): 3370 ng·h/mL
- AUC(0-t) ([4]; female, dog, plasma, po, 5 mg/kg, female dogs, Gr 4, 5.0 mg/kg, D1, read-out: AUC0-last): 3370 ng·h/mL
- AUC(0-inf) [4, 13]: 6280 ng·h/mL
- half-life [4, 13]: 342 min
- AUC(0-t) ([4]; female, dog, plasma, po, 5 mg/kg, female dogs, Gr 4, 5.0 mg/kg, D14, read-out: AUC0-24 h): 5950 ng·h/mL
- AUC(0-t) ([4]; female, dog, plasma, po, 5 mg/kg, female dogs, Gr 4, 5.0 mg/kg, D14, read-out: AUC0-last): 5950 ng·h/mL
- AUC(0-inf) [4, 14]: 67.8 ng·h/mL
- Tmax [4, 14]: 42 min
- half-life [4, 14]: 78 min
- AUC(0-t) ([4]; male, dog, plasma, po, 0.5 mg/kg, male dogs, Gr 2, 0.5 mg/kg, D1, read-out: AUC0-24 h): 59.7 ng·h/mL
- AUC(0-t) ([4]; male, dog, plasma, po, 0.5 mg/kg, male dogs, Gr 2, 0.5 mg/kg, D1, read-out: AUC0-last): 46.6 ng·h/mL
- Cmax ([4]; male, dog, plasma, po, 0.5 mg/kg, male dogs, Gr 2, 0.5 mg/kg, D1, read-out: Cmax): 28.8 ng/mL
- AUC(0-inf) [4, 15]: 68.2 ng·h/mL
- Tmax [4, 15]: 42 min
- half-life [4, 15]: 78 min
- AUC(0-t) ([4]; male, dog, plasma, po, 0.5 mg/kg, male dogs, Gr 2, 0.5 mg/kg, D14, read-out: AUC0-24 h): 64.5 ng·h/mL
- AUC(0-t) ([4]; male, dog, plasma, po, 0.5 mg/kg, male dogs, Gr 2, 0.5 mg/kg, D14, read-out: AUC0-last): 53.2 ng·h/mL
- Cmax ([4]; male, dog, plasma, po, 0.5 mg/kg, male dogs, Gr 2, 0.5 mg/kg, D14, read-out: Cmax): 29.4 ng/mL
- AUC(0-inf) [4, 16]: 121 ng·h/mL
- Tmax [4, 16]: 54 min
- half-life [4, 16]: 72 min
- AUC(0-t) ([4]; male, dog, plasma, po, 1 mg/kg, male dogs, Gr 3, 1.0 mg/kg, D1, read-out: AUC0-24 h): 120 ng·h/mL
- AUC(0-t) ([4]; male, dog, plasma, po, 1 mg/kg, male dogs, Gr 3, 1.0 mg/kg, D1, read-out: AUC0-last): 102 ng·h/mL
- Cmax ([4]; male, dog, plasma, po, 1 mg/kg, male dogs, Gr 3, 1.0 mg/kg, D1, read-out: Cmax): 58.6 ng/mL
- AUC(0-inf) [4, 17]: 196 ng·h/mL
- Tmax [4, 17]: 48 min
- half-life [4, 17]: 108 min
- AUC(0-t) ([4]; male, dog, plasma, po, 1 mg/kg, male dogs, Gr 3, 1.0 mg/kg, D14, read-out: AUC0-24 h): 210 ng·h/mL
- AUC(0-t) ([4]; male, dog, plasma, po, 1 mg/kg, male dogs, Gr 3, 1.0 mg/kg, D14, read-out: AUC0-last): 172 ng·h/mL
- Cmax ([4]; male, dog, plasma, po, 1 mg/kg, male dogs, Gr 3, 1.0 mg/kg, D14, read-out: Cmax): 67.6 ng/mL
- AUC(0-inf) [4, 18]: 3630 ng·h/mL
- Tmax [4, 18]: 36 min
- half-life [4, 18]: 282 min
- AUC(0-t) ([4]; male, dog, plasma, po, 5 mg/kg, male dogs, Gr 4, 5.0 mg/kg, D1, read-out: AUC0-24 h): 3520 ng·h/mL
- AUC(0-t) ([4]; male, dog, plasma, po, 5 mg/kg, male dogs, Gr 4, 5.0 mg/kg, D1, read-out: AUC0-last): 3520 ng·h/mL
- Cmax ([4]; male, dog, plasma, po, 5 mg/kg, male dogs, Gr 4, 5.0 mg/kg, D1, read-out: Cmax): 693 ng/mL
- AUC(0-inf) [4, 19]: 6960 ng·h/mL
- Tmax [4, 19]: 54 min
- half-life [4, 19]: 390 min
- AUC(0-t) ([4]; male, dog, plasma, po, 5 mg/kg, male dogs, Gr 4, 5.0 mg/kg, D14, read-out: AUC0-24 h): 6400 ng·h/mL
- AUC(0-t) ([4]; male, dog, plasma, po, 5 mg/kg, male dogs, Gr 4, 5.0 mg/kg, D14, read-out: AUC0-last): 6400 ng·h/mL
- Cmax ([4]; male, dog, plasma, po, 5 mg/kg, male dogs, Gr 4, 5.0 mg/kg, D14, read-out: Cmax): 716 ng/mL
- MTD [5]: > 160 mg/kg
- Mortality or treatment related clinical signs [6]: No mortality or treatment related clinical signs were noted
- Adverse events reported ([7]; 3 mg dose group): five adverse events were reported by two subjects
- Adverse events reported ([7]; 10 mg dose group): one adverse event was reported by single subjects
- Single increase in QTcF (one subject) ([7]; 10 mg, 24 hours post-dosing): > 60 ms
- Adverse events reported ([7]; 30 mg dose group): one adverse event was reported by single subjects
- Oximetry, capnography, respiratory rate ([7]; 3-60 mg single oral dose): no changes in oximetry or capnography, or changes in respiratory rate
- QTcF values >500 msec ([7]; 3-60 mg single oral dose): no QTcF values>500 msec at any time
- Vital signs and safety laboratory tests ([7]; 3-60 mg single oral dose): no changes in vital signs or safety laboratory tests of note
- Adverse events, Mild ([7]; Dose 3 mg): Back pain; also recorded: Dizziness; also recorded: Epistaxis; also recorded: Headache
- Adverse events, Moderate ([7]; Dose 3 mg): Headache
- Adverse events, Mild ([7]; Dose 10 mg): Headache
- Adverse events, Mild ([7]; Dose 30 mg): Headache
